Experimental data published in patent US10329304B2, “Compounds and methods for inhibition of hedgehog signaling and phosphodiesterase” (Vanderbilt University, priority 2014, dated 2019).
Like-named read-outs stand apart in the source and are kept apart here.

Legend:
PDE4D2 = target: T1, PDE4D2 (Homo sapiens, UniProt Q08499); experiment: In vitro PDE assay; format: biochemical; conditions: Table 9A
T1 construct: purchased BPS Biosciences (San Diego, Calif.)
Experimental: (§1) In vitro PDE profiling and dose-response assays were performed by BPS Biosciences (San Diego, Calif.). Kinetic Mechanism of inhibition studies were conducted by Millipore (St. Louis, Mo.). In brief, the PDE assay measures fluorescent polarization of FAM-AMP as FAM-cAMP is converted to FAM-AMP by PDE), the binding agent.
(§2) A series of dilutions of the test compound were prepared with 10% DMSO in assay buffer and 5 μl of the dilution was added to a 50 μl reaction so that the final concentration of DMSO is 1% in all of reactions. All of the PDE enzymatic reactions were conducted in duplicate at room temperature for 60 minutes in a 50 μl mixture containing PDE assay buffer (10 mM Tris-HCl, pH7.4, 10 mM MaCl2, 0.05% Tween 20), 100 nM FAM-cAMP, a PDE enzyme and a test compound.
(§3) After the enzymatic reaction, 100 μl of a binding solution (1:100 dilution of the binding agent, which contains the nano beads that recognize FAM-AMP, with the binding agent diluent) was added to each reaction and the reaction was performed at room temperature for 60 minutes. Fluorescence intensity was measured at an excitation of 485 nm and an emission of 528 nm using a Tecan Infinite M1000 microplate reader. Assays done by Millipore were conducted similarly with changes noted below: […]

PDE4D3 = target: T2, PDE4D3 (Homo sapiens, UniProt Q08499); experiment: In vitro PDE assay; format: biochemical
T2 construct: purchased BPS Biosciences (San Diego, Calif.); kinetic studies by Millipore (St. Louis, Mo.)
Experimental: as §1, §2, §3

[1] = tested on: Hedgehog signaling (TM3-Gli-Luc); experiment: TM3-Gli-Luc luciferase reporter assay stimulated with 20 nM SAG; format: cell-based
In short: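 TM3-Gli-Luc cells on 0.1% gelatin in DMEM/F12 with 2.5% FBS, treated 48 h with compound plus 20 nM SAG. Steady-Glo luminescence normalized to CellTiter-Glo viability, DMSO-only (no SAG) background subtracted, percent of SAG control. EC50 averaged from ≥2 independent days ±SEM.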

PDE4D = PDE4D (Homo sapiens, UniProt Q08499); experiment: PDE4 inhibition assay (PDE4D IC50); format: biochemical
Experimental: as §1, §2
After the enzymatic reaction, 100 μl of a binding solution (1:100 dilution of the binding agent, which contains the nano beads that recognize FAM-AMP, with the binding agent diluent) was added to each reaction and the reaction was performed at room temperature for 60 minutes. Fluorescence intensity was measured at an excitation of 485 nm and an emission of 528 nm using a Tecan Infinite M1000 microplate reader. Assays done by Millipore were conducted similarly with changes noted below:
Hedgehog signaling inhibition and PDE4 inhibition of various compounds disclosed herein was assayed as described herein above.

[2] = Lipophilic efficiency (LipE = pEC50 − cLogP) and cLogP
Experimental: Therefore, we prioritized phenotypic analog evaluation in the Gli-responsive luciferase reporter line TM3-Gli-Luc stimulated with 20 nM Smo agonist (SAG) while concurrently monitoring non-specific cellular toxicity. Additionally, lipophilic efficiency (LipE), a concurrent readout of a compound's potency (pEC50) and lipophilicity (cLogP) derived by subtracting the latter from the former, was utilized to optimize solubility properties (Table 12B), allowing for straightforward tracking of compounds with improvements in both parameters.

[3] = tested on: Hedgehog signaling (Gli-Luc reporter); experiment: Hh Gli-Luciferase reporter assay in Shh-Light2 cells; format: cell-based, mouse
Experimental: For Hh signaling assays, Shh-Light2 cells stably transfected with Gli-Luciferase reporter construct were used along with Shh-conditioned media, as previously described^7. Alternatively, 3 μM purmorphamine or 20 nM Smoothened agonist (SAG) (Santa Cruz Biotechnology, Santa Cruz, Calif.) was used to induce Hh signaling. Reporter cells were seeded in 96-well plates and incubated overnight with the various concentrations of eggmanone and Shh-conditioned media. To assess the effects of overexpression of Gli-2, PDE4D3 and DN-PDE4D3 on Hh signaling, mammalian expression vectors containing these constructs were transfected into Shh-Light2 cells in 96-well plates using Fugene6 (Roche), according to manufacturer's instructions. The transfected or Shh-stimulated cells were incubated overnight with the various concentrations of compound. The cells were then lysed, and cell extracts were subjected to Steady-Glo luciferase assay (Promega) according to manufacturer's instructions. The results were normalized to cell titer, as determined using Cell Titer-Glo luminescence assay (Promega).

DU145 = experiment: Cell viability assay (CellTiter-Blue, 72 hr); format: cell-based, Human; conditions: DU-145; human cancer cells; read-out: CELL KILLING EC50 (μM) Prostate DU145
Experimental: (§4) Cancer cell lines were seeded in 96 well tissue culture plate at a low density (10,000 cells per well) and treated with varying concentrations of Eggmanone. After 72 hr incubation, CellTiter-Blue Cell Viability Assay (Promega, Madison, Wis.) was then performed according to manufacturer's protocol. Absorbance was then measured in a Modulus Microplate reader (Promega, Madison, Wis.) at 590 nm and compared to cells treated with DMSO.
(§5) Cancer cell lines were seeded in 96 well tissue culture plate at a low density and treated with varying concentrations of compounds identified in Table 7. After 72 hr incubation, CellTiter-Blue Cell Viability Assay (Promega, Madison, Wis.) was then performed according to manufacturer's protocol. Absorbance was then measured in a Modulus Microplate reader (Promega, Madison, Wis.) at 590 nm and compared to cells treated with DMSO.

DaoY = experiment: Cell viability assay (CellTiter-Blue, 72 hr); format: cell-based, Human; conditions: Daoy; human cancer cells; read-out: CELL KILLING EC50 (μM) Medulloblastoma DaoY
Experimental: as §4, §5

HeLa = experiment: Cell viability assay (CellTiter-Blue, 72 hr); format: cell-based, Human; conditions: human cancer cells, read-out: CELL KILLING EC50 (μM) Cervix HeLa
Experimental: as §4, §5

MDA-MB- 231 = experiment: Cell viability assay (CellTiter-Blue, 72 hr); format: cell-based, Human; conditions: MDA-MB-231; human cancer cells; read-out: CELL KILLING EC50 (μM) Breast MDA-231
Experimental: as §4, §5

RKO = experiment: Cell viability assay (CellTiter-Blue, 72 hr); format: cell-based, Human; conditions: RKO; human cancer cells; read-out: CELL KILLING EC50 (μM) Colon RKO
Experimental: as §4, §5

RWGT2 = experiment: Cell viability assay (CellTiter-Blue, 72 hr); format: cell-based, Human; conditions: human cancer cells; read-out: CELL KILLING EC50 (μM) Lung Squam, NSCLC RWGT2
Experimental: as §4, §5

SW480 = experiment: Cell viability assay (CellTiter-Blue, 72 hr); format: cell-based, Human; conditions: SW480; human cancer cells; read-out: CELL KILLING EC50 (μM) Colon SW480
Experimental: as §4, §5

MCF7 = experiment: Cell viability assay (CellTiter-Blue, 72 hr); format: cell-based; conditions: MCF7; human cancer cells; read-out: CELL KILLING EC50 (μM) Breast MCF7
Experimental: as §4, §5

PC3 = experiment: Cell viability assay (CellTiter-Blue, 72 hr); format: cell-based; conditions: PC-3; human cancer cells; read-out: CELL KILLING EC50 (μM) Prostate PCx3
Experimental: as §4

H82 = experiment: Cell killing EC50 in H82 lung cancer cells (Table 10); format: cell-based; conditions: NCI-H82; human cancer cells
Experimental: It is anticipated that compounds disclosed herein could serve as an anti-tumor, anti-angiogenic, anti-metastatic, agent in the treatment of cancer. To this end, a series of clinically relevant cancer lines were assayed and the cell-killing EC50s for compounds according to the subject matter disclosed herein are provided in Table 10.

Gli1 mRNA = experiment: Hh % Inh.: SAG-induced Gli1 expression in C3H10T½ cells (qPCR); format: cell-based; conditions: Mus musculus, C3H 10T1/2, SAG-induced (100 nM), 24 hours; for inhibition at 1 µM: 1 pM [sic], read-out: C3H10T1/2 qPCR, Gh1 mRNA % Inh., 1 pM; for inhibition at 10 µM: 10 pM [sic], read-out: C3H10T1/2 qPCR, Gh1 mRNA % Inh., 10 pM
Experimental: Compounds are dosed from 10 mM DMSO stock solutions, and mRNA is isolated after 24 hours of compound treatment. mRNA is reverse transcribed to produce cDNA which is quantified by quantitative polymerase chain reaction (qPCR) in triplicate and levels are normalized to GAPDH levels. Data is presented as percent inhibition compared to positive control (SAG).

[4] = Table 9A, read-out: TM3 G8 Luciferase EC 50
[5] = 20 nM SAG, mean ± standard error of the mean, read-out: TM3-Gli-Luc EC50
[6] = Calculated as pEC50 - cLogP, Molinspiration Cheminformatics
[7] = TM3-Gli-Luc reporter line stimulated with 20 nM SAG, mean ± SEM, Table 13, read-out: TM3-Gli-Luc EC50
[8] = calculated as pEC50 - cLogP (Molinspiration Cheminformatics), Table 13

T2 sequence (Q08499 1-673 isoform Q08499-2): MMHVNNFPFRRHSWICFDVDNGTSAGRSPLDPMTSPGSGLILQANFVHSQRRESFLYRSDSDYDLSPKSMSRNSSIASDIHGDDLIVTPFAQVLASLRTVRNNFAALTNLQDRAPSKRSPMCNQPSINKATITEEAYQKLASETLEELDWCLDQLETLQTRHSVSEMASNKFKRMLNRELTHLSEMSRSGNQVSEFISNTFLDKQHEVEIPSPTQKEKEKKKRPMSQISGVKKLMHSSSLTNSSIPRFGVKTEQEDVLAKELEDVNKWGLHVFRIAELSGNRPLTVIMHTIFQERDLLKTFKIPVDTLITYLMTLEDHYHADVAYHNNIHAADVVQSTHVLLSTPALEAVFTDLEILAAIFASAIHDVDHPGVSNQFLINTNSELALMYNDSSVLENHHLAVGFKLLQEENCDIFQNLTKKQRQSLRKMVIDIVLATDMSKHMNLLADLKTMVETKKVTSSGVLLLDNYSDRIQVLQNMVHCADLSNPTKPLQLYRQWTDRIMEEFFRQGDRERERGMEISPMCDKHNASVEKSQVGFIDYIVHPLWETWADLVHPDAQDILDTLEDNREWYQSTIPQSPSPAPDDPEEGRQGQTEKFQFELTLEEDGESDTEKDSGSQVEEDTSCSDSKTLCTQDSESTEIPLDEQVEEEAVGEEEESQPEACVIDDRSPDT
T1 sequence (Q08499 303-809): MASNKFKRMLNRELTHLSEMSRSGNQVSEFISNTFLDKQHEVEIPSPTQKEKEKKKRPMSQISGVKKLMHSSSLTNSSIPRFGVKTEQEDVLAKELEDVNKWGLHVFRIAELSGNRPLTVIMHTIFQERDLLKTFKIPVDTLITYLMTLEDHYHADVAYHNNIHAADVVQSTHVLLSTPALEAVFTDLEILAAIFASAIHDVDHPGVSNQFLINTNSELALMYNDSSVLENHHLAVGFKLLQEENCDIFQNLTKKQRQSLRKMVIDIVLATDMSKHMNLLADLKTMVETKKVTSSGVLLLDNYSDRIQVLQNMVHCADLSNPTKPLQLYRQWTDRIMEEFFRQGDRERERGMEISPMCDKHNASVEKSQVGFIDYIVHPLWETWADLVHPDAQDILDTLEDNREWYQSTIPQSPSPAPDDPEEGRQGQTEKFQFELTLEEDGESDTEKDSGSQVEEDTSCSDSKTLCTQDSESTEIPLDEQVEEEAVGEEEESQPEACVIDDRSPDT

C=C(C)Cn1c(SCC(=O)N2CCCC[C@H]2C)nc2sc3c(c2c1=O)CCCC3 [Formula 1ANQ]
IC50 (PDE4D2): 1.2 µM
IC50 (PDE4D3; Table 9A): 1.7 µM
TM3 G8 Luciferase % Inh., 0.5 pM ([1]; 0.5 pM as printed): 17.4%

C=CCn1c(SCC(=O)c2ccccn2)nc2sc3c(c2c1=O)CCCC3 [Formula 1KL1]
IC50 (PDE4D2): 25 µM
IC50 (PDE4D3; Table 9A): 62 µM

C=CCn1c(SCC(=O)c2ccncc2)nc2sc3c(c2c1=O)CCCC3 [Formula 1KMH]
IC50 (PDE4D2): 5 µM
IC50 (PDE4D3; Table 9A): 8.2 µM

C=CCn1c(SCC(=O)N2CCCC[C@H]2C)nc2sc3c(c2c1=O)CCCC3 [Formula 1KMR]
IC50 (PDE4D2): 7.6 µM
IC50 (PDE4D3; Table 9A): 11 µM

C=CCn1c(SCC(=O)N2Cc3ccccc3C2)nc2sc3c(c2c1=O)CCCC3 [Formula 1KYW]
IC50 (PDE4D2): > 100 µM
IC50 (PDE4D3; Table 9A): > 100 µM

C=CCn1c(SCC(=O)N2CCOCC2)nc2sc3c(c2c1=O)CCCC3 [Formula 1L4R]
IC50 (PDE4D2): > 100 µM
IC50 (PDE4D3; Table 9A): > 100 µM
EC50 [1, 4]: 2.82 µM

C=C(C)Cn1c(SCC(=O)c2cccs2)nc2sc3c(c2c1=O)CCCC3 [Formula 3]
IC50 (PDE4D; mean ± SEM, normalized to DMSO, read-out: PDE4D IC50): 0.38 ± 0.02 µM
EC50 [1, 5]: 1.34 ± 0.002 µM
EC50 ([1]; TM3-Gli-Luc reporter line stimulated with 20 nM SAG, mean ± SEM, Table 14, read-out: TM3-Gli-Luc EC50): 1.34 ± 0.002 µM
LipE [2, 6]: 0.73
LipE ([2]; pEC50 - cLogP, Table 14): 0.73

C=C(C)Cn1c(SCC(=O)c2cccs2)nc2sc3c(c2c1=O)CCNC3 [Formula 10a]
EC50 [1, 5]: 6.4 ± 0.33 µM
LipE [2, 6]: 1.45

O=C(CSc1nccc(=O)n1C1CC1)c1ccccc1 [Formula 14c]
Hh inhibitory activity / potency in words ([1]; 20 nM SAG): potency improvements over EGM1
EC50 [1, 7]: 1.16 ± 0.39 µM
LipE [2, 8]: 2.46

C=C(C)Cn1c(SCC(=O)c2cccs2)nccc1=O [Formula 19a]
EC50 [1, 7]: 0.931 ± 0.11 µM
LipE [2, 8]: 2.06

C=C(C)Cn1c(SCC(=O)c2ccc(-c3ccccc3)cc2)nc2sc3c(c2c1=O)CCCC3 [Formula (19)]
Hh Inhibition Assay (EC50, μM) ([3]; Table 8): Inactive
IC50 (PDE4D; Table 8, read-out: PDE4 Inhibition Assay (IC50)): > 100 µM

C=CCn1c(SCC(=O)c2ccccc2)nc2sc(CC)cc2c1=O [HI630]
EC50 ([3]; Mus musculus, Shh Light2, Table 9B, read-out: Shh Light2 Luc EC50): > 10 µM
IC50 (PDE4D3; Table 9B): 6 µM
EC50 (DU145): > 100 µM
EC50 (DaoY): > 100 µM
EC50 (HeLa): > 100 µM
EC50 (MDA-MB- 231): 23.1 µM
EC50 (RKO): 100 µM
EC50 (RWGT2): 44.4 µM
EC50 (SW480): 182 µM
EC50 (MCF7): > 100 µM
EC50 (PC3): > 100 µM
EC50 (H82): > 100 µM

O=C(CSc1nc2sc3c(c2c(=O)n1-c1ccccc1)CCCC3)c1cccs1 [JEH-3-058-1]
IC50 (PDE4D2): 45 µM
IC50 (PDE4D3; Table 9A): 14 µM
inhibition at 1 µM (Gli1 mRNA): 12%
inhibition at 10 µM (Gli1 mRNA): 85.3%
EC50 [1, 4]: 12.6 µM

C=C(C)Cn1c(SCC(=O)N2CCOCC2)nc2sc3c(c2c1=O)CCCC3 [JEH-3-079]
IC50 (PDE4D2): 3.2 µM
IC50 (PDE4D3; Table 9A): 4.1 µM
inhibition at 1 µM (Gli1 mRNA): 25.1%
inhibition at 10 µM (Gli1 mRNA): 50.8%
EC50 [1, 4]: 18.2 µM

CS(=O)(=O)c1ccc(C(=O)Nc2ccc(Cl)c(-c3ccccn3)c2)c(Cl)c1 [Vismodegib, reference compound]
Hh inhibitory activity / potency in words ([1]; 20 nM SAG): displayed expected potency
Hh inhibitory activity / potency in words ([1]; 20 nM SAG, listed as 1): low-nanomolar
EC50 [1, 5]: 0.013 ± 0.004 µM
LipE [2, 6]: 4.33
